The assay deals with β-catenin/BCL9 PPI (Homo sapiens (Human), UniProt P35222). Nature of the assay: AlphaScreen competitive inhibition assay of β-catenin/BCL9 PPI. In kind it is binding. Conditions: mean ± standard deviation (n = 3); for Ki: derived from IC50, read-out: Ki ± SD. How it is done:
AlphaScreen Assays of β-Catenin and BCL9 Interaction. Experiments were performed in white opaque 384-well plates from PerkinElmer (Waltham, MA), and the samples were read on a Biotek Synergy 2 plate reader (Winooski, VT) with excitation at 680 nm and emission at 570 nm. The standard AlphaScreen protocol was used with a sensitivity setting of 200. All dilutions were made in 1× assay buffer containing 25 mM Hepes (pH 7.4), 100 mM NaCl, 0.01% Triton X-100 and 0.1% BSA to minimize nonspecific interactions. For the competitive inhibition assays of β-catenin/BCL9 PPI, the negative control (equivalent to 0% inhibition) refers to 5.0 nM biotinylated BCL9, 50 nM His6-tagged β-catenin, and 10 μg/mL donor and acceptor beads in a final volume of 25 μL assay buffer, but no tested inhibitor present. The positive control (equivalent to 100% inhibition) refers to 5.0 nM biotinylated BCL9 and 10 μg/mL donor and acceptor beads in a final volume of 25 μL assay buffer.
For the β-catenin/BCL9 assay, 5 nM biotinylated BCL9 and 50 nM His6-tagged β-catenin were incubated in assay buffer for 30 min. Different concentrations of the tested inhibitor were added and incubated in 20 μL assay buffer for another 1 h. All of the assay plates were covered and gently mixed on an orbital shaker. The donor and acceptor beads were then added to the plates to a final concentration of 10 μg/mL in 25 μL assay buffer. The mixture was incubated for 1 h before detection. The IC50 value was determined by nonlinear least-square analysis of GraphPad Prism 8.0. The Ki values were derived from the IC50 values using a method reported by Wang and coworkers.^65 The equation used is Ki=[I]50/([L]50/Kd+[P]0/Kd+1) (Where [I]50 denotes the concentration of the free inhibitor at 50% inhibition, [L]50 is the concentration of the free labeled ligand at 50% inhibition, [P]0 is the concentration of the free protein at 0% inhibition, and Kd is the dissociation constant of the protein-ligand complex). All of the experiments were performed in triplicate and carried out in the presence of 1% DMSO for small-molecule inhibitors. Each compound was assayed at least by three independent experiments. The results were expressed as mean±standard deviation.
(In Alpha technology, singlet oxygen from a donor bead excites a nearby acceptor bead.)

The structures appear in SMILES notation. Counter-ions that a name gives are not always drawn.

Chain of β-catenin/BCL9 PPI (P35222 whole entry): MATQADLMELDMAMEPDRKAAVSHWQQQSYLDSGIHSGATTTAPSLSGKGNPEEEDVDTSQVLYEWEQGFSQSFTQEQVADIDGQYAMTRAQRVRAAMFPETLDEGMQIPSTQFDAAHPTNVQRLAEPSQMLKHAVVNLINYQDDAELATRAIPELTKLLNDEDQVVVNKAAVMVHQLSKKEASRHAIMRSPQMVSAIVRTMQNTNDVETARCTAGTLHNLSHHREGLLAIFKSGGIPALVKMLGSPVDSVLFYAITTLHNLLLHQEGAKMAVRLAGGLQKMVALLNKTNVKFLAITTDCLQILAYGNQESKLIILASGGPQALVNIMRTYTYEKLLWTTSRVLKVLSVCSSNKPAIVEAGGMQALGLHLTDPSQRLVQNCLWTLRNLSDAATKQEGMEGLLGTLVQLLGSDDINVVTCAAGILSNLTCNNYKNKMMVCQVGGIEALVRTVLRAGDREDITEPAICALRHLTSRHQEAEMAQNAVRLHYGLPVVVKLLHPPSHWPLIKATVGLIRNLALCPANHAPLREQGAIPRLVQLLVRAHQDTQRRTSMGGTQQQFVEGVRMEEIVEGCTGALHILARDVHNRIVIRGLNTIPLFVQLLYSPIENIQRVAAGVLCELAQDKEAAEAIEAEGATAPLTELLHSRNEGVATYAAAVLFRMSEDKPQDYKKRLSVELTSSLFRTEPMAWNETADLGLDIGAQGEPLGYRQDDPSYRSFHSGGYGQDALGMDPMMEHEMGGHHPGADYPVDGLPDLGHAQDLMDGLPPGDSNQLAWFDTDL

Usually Ki stands for a dissociation constant, usually derived from enzyme kinetics or from competition with a known ligand. A word on the IC50: it is the midpoint of a concentration-inhibition curve. With `CN(C)C(=O)c1ccc(N2CCNCC2)cc1OC1CCN(C(=O)c2ccc(O[C@H]3CCNC3)c(C3CCC(C(C)(C)C)CC3)c2)CC1` (stereo in doubt) [Compound 43, cis- and trans-(S)-2-((1-(3-(4-(tert-butyl)cyclohexyl)-4-(pyrrolidin-3-yloxy)benzoyl)piperidin-4-yl)oxy)-N,N-dimethyl-4-(piperazin-1-yl)benzamide dihydrochloride], the Ki is about 81 µM and the 50% inhibitory concentration (IC50) is about 100 µM.
As for `CC(C)(C)C1CCC(c2cc(C(=O)N3CCC(Oc4cc(N5CCNCC5)ccc4C#N)CC3)ccc2O[C@H]2CCNC2)CC1` (stereo in doubt) [Compound 37, cis- and trans-(S)-2-((1-(3-(4-(tert-butyl)cyclohexyl)-4-(pyrrolidin-3-yloxy)benzoyl)piperidin-4-yl)oxy)-4-(piperazin-1-yl)benzonitrile dihydrochloride], the Ki is at most 2 µM and the IC50 is at most 2 µM.
With `CC(C)(C)C(=O)N1CCC(c2cc(C(=O)N3CCC(Oc4cc(F)cc(N5CCNCC5)c4)CC3)ccc2O[C@H]2CCNC2)CC1` [Compound 24, (S)-1-(4-(5-(4-(3-fluoro-5-(piperazin-1-yl)phenoxy)piperidine-1-carbonyl)-2-(pyrrolidin-3-yloxy)phenyl)piperidin-1-yl)-2,2-dimethylpropan-1-one dihydrochloride], the Ki was about 84 µM and the IC50 is about 100 µM.
The matching figures for `O=C(c1ccc(OC2CCNCC2)c(C2CCCCC2)c1)N1CCC(Oc2cc(F)cc(N3CCNCC3)c2)CC1` [Compound 6, (3-cyclohexyl-4-(piperidin-4-yloxy)phenyl)(4-(3-fluoro-5-(piperazin-1-yl)phenoxy)piperidin-1-yl)methanone ditrifluoroacetic acid]: over 84 µM and over 100 µM.
Take `CC(C)(C)[C@H]1CC[C@H](c2cc(C(=O)N3CCC(Oc4cc(N5CCNCC5)ccc4C#N)CC3)ccc2O[C@H]2CCNC2)CC1` [Compound 45]: the Ki is at most 4 µM and the half-inhibitory concentration (IC50) was at most 4 µM.
Consider `CC1(O)CCN(c2cc(C(=O)N3CCC(Oc4cc(F)cc(N5CCNCC5)c4)CC3)ccc2O[C@H]2CCNC2)CC1` [Compound 28], for which the Ki was at most 20 µM and the IC50 was at most 20 µM.
On to `CNC(=O)c1ccc(N2CCNCC2)cc1OC1CCN(C(=O)c2ccc(O[C@H]3CCNC3)c(C3CCC(C(C)(C)C)CC3)c2)CC1` (stereo in doubt) [Compound 42, cis- and trans-(S)-2-((1-(3-(4-(tert-butyl)cyclohexyl)-4-(pyrrolidin-3-yloxy)benzoyl)piperidin-4-yl)oxy)-N-methyl-4-(piperazin-1-yl)benzamide dihydrochloride], for which the inhibition constant (Ki) was at most 50 µM and the IC50 was at most 50 µM.
As to `COC(=O)c1ccc(N2CCNCC2)cc1OC1CCN(C(=O)c2ccc(O[C@H]3CCNC3)c(C3CCC(C(C)(C)C)CC3)c2)CC1` (stereo in doubt) [Compound 39, cis- and trans-methyl (S)-2-((1-(3-(4-(tert-butyl)cyclohexyl)-4-(pyrrolidin-3-yloxy)benzoyl)piperidin-4-yl)oxy)-4-(piperazin-1-yl)benzoate dihydrochloride], the Ki came out at 14 ± 0.87 µM and the 50% inhibitory concentration (IC50) worked out at 17 ± 1.1 µM.
The matching figures for `CC(C)(O)C1CCN(c2cc(C(=O)N3CCC(Oc4cc(F)cc(N5CCNCC5)c4)CC3)ccc2O[C@H]2CCNC2)CC1` [Compound 29, (4-(3-fluoro-5-(piperazin-1-yl)phenoxy)piperidin-1-yl)(3-(4-(2-hydroxypropan-2-yl)piperidin-1-yl)-4-(pyrrolidin-3-yloxy)phenyl)methanone]: at most 50 µM and at most 50 µM.
Consider `O=C(c1ccc(O[C@H]2CCNC2)c(C2CCCCC2)c1)N1CCC(Oc2cc(F)cc(N3CCNCC3)c2)CC1` [Compound 1, (S)-(3-cyclohexyl-4-(pyrrolidin-3-yloxy)phenyl)(4-(3-fluoro-5-(piperazin-1-yl)phenoxy)piperidin-1-yl)methanone dihydrochloride], for which the Ki is at most 50 µM and the IC50 was at most 60 µM.
For `CC(C)(C)C1CCC(c2cc(C(=O)N3CCC(Oc4cc(N5CCNCC5)cc(F)c4F)CC3)ccc2O[C@H]2CCNC2)CC1` (stereo in doubt) [Compound 35, cis- and trans-(S)-(3-(4-(tert-butyl)cyclohexyl)-4-(pyrrolidin-3-yloxy)phenyl)(4-(2,3-difluoro-5-(piperazin-1-yl)phenoxy)piperidin-1-yl)methanone dihydrochloride], the Ki was at most 5 µM and the half-inhibitory concentration (IC50) was at most 5 µM.
Take `CC(C)(C)C1CCC(c2cc(C(=O)N3CCC(Oc4ccc(F)c(N5CCNCC5)c4)CC3)ccc2O[C@H]2CCNC2)CC1` (stereo in doubt) [Compound 33, cis- and trans-(S)-(3-(4-(tert-butyl)cyclohexyl)-4-(pyrrolidin-3-yloxy)phenyl)(4-(4-fluoro-3-(piperazin-1-yl)phenoxy)piperidin-1-yl)methanone dihydrochloride]: the Ki was at most 10 µM and the IC50 was at most 10 µM.
`CC(C)(C)C1CCC(c2cc(C(=O)N3CCC(Oc4cc(N5CCNCC5)ccc4Cl)CC3)ccc2O[C@H]2CCNC2)CC1` (stereo in doubt) [Compound 36, cis- and trans-(S)-(3-(4-(tert-butyl)cyclohexyl)-4-(pyrrolidin-3-yloxy)phenyl)(4-(2-chloro-5-(piperazin-1-yl)phenoxy)piperidin-1-yl)methanone dihydrochloride]: the Ki was at most 5 µM and the IC50 is at most 5 µM.
`O=C(c1ccc(O[C@H]2CCNC2)c(C2CCN(C(=O)C3CC3)CC2)c1)N1CCC(Oc2cc(F)cc(N3CCNCC3)c2)CC1` [Compound 21, (S)-(3-(1-(cyclopropanecarbonyl)piperidin-4-yl)-4-(pyrrolidin-3-yloxy)phenyl)(4-(3-fluoro-5-(piperazin-1-yl)phenoxy)piperidin-1-yl)methanone dihydrochloride]: the Ki was at most 50 µM and the IC50 is at most 50 µM.
For the compound `CC(C)(C)C1CCC(c2cc(C(=O)N3CCC(Oc4cc(Cl)cc(N5CCNCC5)c4)CC3)ccc2O[C@H]2CCNC2)CC1` (stereo in doubt) [Compound 30, cis- and trans-(S)-(3-(4-(tert-butyl)cyclohexyl)-4-(pyrrolidin-3-yloxy)phenyl)(4-(3-chloro-5-(piperazin-1-yl)phenoxy)piperidin-1-yl)methanone dihydrochloride], the Ki was at most 5 µM and the IC50 is at most 5 µM.
Regarding `O=C(c1ccc(O[C@H]2CCNC2)c(C2CCCCC2)c1)N1CCC(Oc2cc(F)cc(N3CCC4(CC3)CNC4)c2)CC1` [Compound 3, (S)-(3-cyclohexyl-4-(pyrrolidin-3-yloxy)phenyl)(4-(3-fluoro-5-(2,7-diazaspiro[3.5]nonan-7-yl)phenoxy)piperidin-1-yl)methanone ditrifluoroacetic acid], the Ki was over 84 µM and the IC50 is over 100 µM.
For `CC(C)(C)C1CCC(c2cc(C(=O)N3CCC(Oc4cc(N5CCNCC5)ccc4C(N)=O)CC3)ccc2O[C@H]2CCNC2)CC1` (stereo in doubt) [Compound 41, cis- and trans-(S)-2-((1-(3-(4-(tert-butyl)cyclohexyl)-4-(pyrrolidin-3-yloxy)benzoyl)piperidin-4-yl)oxy)-4-(piperazin-1-yl)benzamide dihydrochloride], in that order: at most 20 µM and at most 20 µM.
For the compound `Cn1cc(-c2cc(C(=O)N3CCC(Oc4cc(F)cc(N5CCNCC5)c4)CC3)ccc2O[C@H]2CCNC2)cn1` [Compound 13, (S)-(4-(3-fluoro-5-(piperazin-1-yl)phenoxy)piperidin-1-yl)(3-(1-methyl-1H-pyrazol-4-yl)-4-(pyrrolidin-3-yloxy)phenyl)methanone dihydrochloride], the Ki was at most 10 µM and the IC50 was at most 10 µM.
